Experimental data reported in publication PMC9085577, “Discovery of a Potent and Orally Active Dual GPBAR1/CysLT1R Modulator for the Treatment of Metabolic Fatty Liver Disease” (Frontiers in Pharmacology, 2022).
Values after ≈ are worked out from the molar mass of the structure shown.

Experiments:
[1] = Aqueous solubility in PBS pH 7.4 by LC-MS/MS; type: physicochemical
Method: Solubility. Ten microliters of a 10 mM solution of tested compounds were diluted either in 490 µL of PBS pH 7.4 or MeOH and agitated for 24 h at 250 rpm. The obtained solutions were first centrifuged for 5 min at 4,000 rpm and then further diluted adding 10 μL of each sample to 490 µL of MeOH. Samples were analyzed by LC-MS/MS and the ratio of mass signal area obtained in PBS and in organic solvent was then measured and used to determine solubility.

[2] = test system: eWAT and colon mRNA expression; assay: Quantitative real-time PCR of eWAT and colon of HFD-F mice; type: in vivo; settings: 30 mg/kg/day by gavage
Source text: C57BL/6J male mice were fed a high fat diet (HFD) containing 59 KJ% fat plus 1% cholesterol, w/o sugar (ssniff ® EF R/M acc. D12330 mod. 22,7 ME/kg) and fructose (HFD-F) in drinking water (42 g/L), or normal chow diet for 61 days. Food intake was estimated as the difference of weight between the offered and the remnant amount of food at 3-days intervals. The food was provided as pressed pellets and the residual spillage was not considered. After 7 days, HFD-F mice were randomized to receive HFD-F alone or in combination with compound 2 (30 mg/kg/day) by gavage until the end of the experiment. Doses of each agent were chosen according to previously published data. Mice were housed under controlled temperature (22°C) and photoperiods (12:12-h light/dark cycle), allowed unrestricted access to standard mouse chow and tap water. The experimental protocol was approved by the Animal Care and Use Committee of the University of Perugia and by the Italian Minister of Health and Istituto Superiore di Sanità (Italy) and was in agreement with the European guidelines for use of experimental animals (permission n. 583/2017-PR). The general health of the animals was monitored daily by the Veterinarian in the animal facility. At the day of sacrifice, fed mice were deeply anesthetized with a mixture of tiletamine hypochloride and zolazepam hypochloride/xylazine at a dose of 50/5 mg/kg and sacrificed before 12 a.m.
RNA was extracted from eWAT and colon with Direct-zol™ RNA MiniPrep w/Zymo-Spin™ IIC Columns (Zymo Research, Irvine, CA) and it was subjected to reverse transcription with FastGene Scriptase Basic Kit (Nippon Genetics Europe) in a 20 μL reaction volume.
For real time PCR, 50 ng cDNA were amplified in a 20 μL solution containing 200 nM of each primer and 10 μL of SYBR Select Master Mix (Thermo Fisher Scientific, Waltham, MA, United States). All reactions were performed in triplicate, and the thermal cycling conditions were as follows: 10 min at 95°C, followed by 40 cycles of 95°C for 10 s and 60°C for 45 s with QuantStudio™ 3 Real-Time PCR System (Applied Biosystems). The relative mRNA expression was calculated and expressed as 2−(ΔΔCt). Expression of the respective gene was normalized against Gapdh mRNA as an internal control. The following primers for Real-Time PCR were used: mouse-Gapdh: ctgagtatgtcgtggagtctac and gttggtggtgcaggatgcattg; mouse-Srebf1: gatcaaagaggagccagtgc and tagatggtggctgctgagtg; mouse-Fasn: tcaagatgaaggtggcagaggtgct and ttgagcagtgccgggattcgg; mouse-Pgc1α: cttagcactcagaaccatgcag and aatgctcttcgctttattgctc; mouse-Fxr: actggaccacgaagatcagatt and gagcgtactcctcctgagtcat; mouse-adiponectin: tgacagatcagctcgagtgg and cagtgccgtcagttcttgtg; mouse-Tnf-α: ccaccacgctcttctgtcta and agggtctgggccatagaact; mouse-ucp2: ttgcccgtaatgccattgtc and gcaagggaggtcatctgtca; mouse-cd11b gtcagagtctgcctccgtgt and cagggtctaaagccaggtca; mouse-pparγ: gccagtttcgatccgtagaa and aatccttggccctctgagat; mouse-Il-1β: gctgaaagctctccacctca and aggccacaggtattttgtcg; mouse-Gcg: ccaagattttgtgcagtggtt and ccttcagcatgcctctcaaa.

Solubility [1]: good
solubility at 24 h ([1]; PBS pH 7.4): 66 µM (≈ 23.5 µg/mL)
SMILES: O=C(O)c1cccc(-c2ccc(OCc3ccc4ccccc4n3)cc2)c1 [Compound 2, 4'-(quinolin-2-ylmethoxy)-[1,1′-biphenyl]-3-carboxylic acid]
colon expression of Gcg [2]: upregulated
colon expression of Il-1β [2]: strongly reduced
eWAT expression of Cd11b [2]: robustly reduced
eWAT expression of Tnf-α [2]: robustly reduced
eWAT expression of Ucp2 [2]: upregulated
